# Measured values as given in patent publication US9410182B2, “Phosphatase coupled glycosyltransferase assay” (Bio-Techne Corporation, priority 2010, dated 2016).
# Key:
# Assay type in all cases: biochemical
# ST6Gal 1 = target: T1, ST6Gal 1 (Homo sapiens, UniProt P15907); test: Sialyltransferase activity of ST6Gal 1 assayed with CD73; conditions: for specific activity of ST6Gal 1 against acceptor: 1 mM lactosamine or 4 mM lactose as acceptor, 1 mM CMP-NeuAc, 0.1 μg CD73
# T1 construct: purchased R&D Systems
# T1 sequence (P15907 1-406): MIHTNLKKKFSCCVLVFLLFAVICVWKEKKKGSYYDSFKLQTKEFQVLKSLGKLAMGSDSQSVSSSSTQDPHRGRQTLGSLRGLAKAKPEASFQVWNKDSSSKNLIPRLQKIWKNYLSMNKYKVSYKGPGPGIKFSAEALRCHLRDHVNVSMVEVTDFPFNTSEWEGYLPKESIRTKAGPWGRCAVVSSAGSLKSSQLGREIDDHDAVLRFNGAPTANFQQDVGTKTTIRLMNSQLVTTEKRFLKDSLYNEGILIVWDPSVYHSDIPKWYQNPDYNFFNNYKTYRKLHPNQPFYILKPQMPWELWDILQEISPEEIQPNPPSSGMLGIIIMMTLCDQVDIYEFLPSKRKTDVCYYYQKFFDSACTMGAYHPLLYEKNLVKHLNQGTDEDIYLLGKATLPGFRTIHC
# Description: (§1) The GDP-Fucose, UDP-Glucose, CMP-NeuAc, CMP, UDP and GDP used in the following experiments were obtained from Sigma-Aldrich (St Louis, Mo.). The recombinant human Fut7, ST6Gal1, CD73, CD39L3, non-specific alkaline phosphatase TNAP, recombinant Clostridium Difficile toxin B (TcdB) containing the glycosyltransferase domain and Malachite Green Phosphate Detection Kit were obtained from R&D Systems (Minneapolis, Minn.). The 3′-Sialyl-N-acetyllactosamine was obtained from V-LABS, Inc (Convington, La.). Unless otherwise specified, each glycosyltransferase reaction was performed in 50 μL of a buffer of 25 mM Tris, 150 mM NaCl, 5 mM MgCl2 and 5 mM MnCl2, at pH 7.5 in a 96-well plate at room temperature for 20 minutes. To determine kinetic parameters of each glycosyltransferase, multiple reactions with varied amounts of either glycosyltransferase or substrates were preceded simultaneously in the presence of fixed amounts of all other components, including a phosphatase. A well containing all components except glycosyltransferase served as a blank control for each example. The reactions were stopped by adding 30 μL of Malachite Reagent A and 100 μL of water to each well. The color was developed by adding 30 μL of Malachite Reagent B to each well followed by gently tapping on the edge and incubation for 30 minutes. The plate was then read at 620 nm with a multi-well plate reader.
# Sialic acid is negatively charged under normal pH conditions, making sialyltransferases more difficult to assay than other glycosyltransferases. Because both the donor and product are likely negatively charged, separating them by common ion exchange chromatography separation is challenging. In this experiment, ST6Gal 1, a sialyltransferase, was assayed using 0.1 μg CD73 in a 96-well plate. First, enzyme curves were obtained with either 1 mM lactosamine or 4 mM lactose as the acceptor in the presence of 1 mM CMP-NeuAc. The results are shown in FIG. 7, and the specific activities against lactosamine and lactose were determined to be 458 and 41 pmol/min/μg respectively, confirming that the enzyme strongly favors lactosamine structure. The apparent Km and Vmax were determined for one substrate while fixing the other by fitting the data to KaleidaGraph 4 program.
# CD73 = target: T2, CD73 (Homo sapiens, UniProt P21589); test: Phosphate release from CMP by CD73, malachite green detection; conditions: 0.1 μg CD73, up to 10 nmol nucleotide, 15 minutes, room temperature
# T2 construct: purchased R&D Systems
# T2 sequence (P21589 27-549): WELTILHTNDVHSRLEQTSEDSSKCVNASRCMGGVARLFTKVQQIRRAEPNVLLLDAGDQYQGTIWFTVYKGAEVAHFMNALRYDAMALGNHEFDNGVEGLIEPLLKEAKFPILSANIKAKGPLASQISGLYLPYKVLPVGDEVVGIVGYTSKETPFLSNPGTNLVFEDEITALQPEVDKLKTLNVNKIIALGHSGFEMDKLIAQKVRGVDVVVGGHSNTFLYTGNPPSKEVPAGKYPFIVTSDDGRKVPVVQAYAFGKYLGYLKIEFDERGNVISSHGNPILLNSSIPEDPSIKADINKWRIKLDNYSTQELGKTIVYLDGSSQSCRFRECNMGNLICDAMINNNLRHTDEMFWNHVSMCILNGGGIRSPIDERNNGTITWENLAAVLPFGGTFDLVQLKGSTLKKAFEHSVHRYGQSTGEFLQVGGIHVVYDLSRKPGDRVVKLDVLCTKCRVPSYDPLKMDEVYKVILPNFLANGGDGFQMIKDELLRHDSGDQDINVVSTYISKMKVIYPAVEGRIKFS
# Description: as §1, with “The reactions were stopped by adding 30 μL of Malachite Reagent A and 100 μL of water to each well. The color was developed by adding 30 μL of Malachite Reagent B to each well followed by gently tapping on the edge and incubation for 30 minutes.” left out
# (§2) UDP, GDP and CMP are common donors in glycosyltransferase reactions. […] In FIG. 4C, it can be seen that TNAP, at 0.1 μg level, could only quantitatively release phosphate up to 2 nmol of nucleotide input. […]
# TNAP = target: T3, TNAP (Homo sapiens, UniProt P05186); test: Phosphate release from UDP, GDP and CMP by TNAP, malachite green detection; conditions: 1 μg TNAP, up to 10 nmol nucleotide
# T3 construct: purchased R&D Systems
# T3 sequence (P05186 18-501): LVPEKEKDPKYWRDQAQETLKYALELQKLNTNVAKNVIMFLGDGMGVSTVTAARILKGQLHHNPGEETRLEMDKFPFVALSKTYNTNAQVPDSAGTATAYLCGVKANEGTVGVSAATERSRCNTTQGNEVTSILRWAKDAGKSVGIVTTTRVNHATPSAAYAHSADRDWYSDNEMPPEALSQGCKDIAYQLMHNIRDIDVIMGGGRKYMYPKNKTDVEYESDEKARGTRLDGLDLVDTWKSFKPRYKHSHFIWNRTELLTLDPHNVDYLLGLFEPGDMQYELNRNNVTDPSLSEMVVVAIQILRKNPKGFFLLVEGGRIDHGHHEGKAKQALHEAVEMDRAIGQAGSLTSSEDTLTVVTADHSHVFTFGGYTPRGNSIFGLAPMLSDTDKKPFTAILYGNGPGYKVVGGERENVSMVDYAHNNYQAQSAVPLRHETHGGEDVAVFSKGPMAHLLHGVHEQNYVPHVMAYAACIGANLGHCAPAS
# Description: as §1, with “The reactions were stopped by adding 30 μL of Malachite Reagent A and 100 μL of water to each well. The color was developed by adding 30 μL of Malachite Reagent B to each well followed by gently tapping on the edge and incubation for 30 minutes.” left out
# as §2
# CD39L3 = target: T4, CD39L3 (Homo sapiens, UniProt O75355); test: Phosphate release from UDP and GDP by CD39L3, malachite green detection; conditions: 0.1 μg CD39L3, up to 10 nmol nucleotide, 15 minutes, room temperature
# T4 construct: purchased R&D Systems
# T4 sequence (O75355 1-529): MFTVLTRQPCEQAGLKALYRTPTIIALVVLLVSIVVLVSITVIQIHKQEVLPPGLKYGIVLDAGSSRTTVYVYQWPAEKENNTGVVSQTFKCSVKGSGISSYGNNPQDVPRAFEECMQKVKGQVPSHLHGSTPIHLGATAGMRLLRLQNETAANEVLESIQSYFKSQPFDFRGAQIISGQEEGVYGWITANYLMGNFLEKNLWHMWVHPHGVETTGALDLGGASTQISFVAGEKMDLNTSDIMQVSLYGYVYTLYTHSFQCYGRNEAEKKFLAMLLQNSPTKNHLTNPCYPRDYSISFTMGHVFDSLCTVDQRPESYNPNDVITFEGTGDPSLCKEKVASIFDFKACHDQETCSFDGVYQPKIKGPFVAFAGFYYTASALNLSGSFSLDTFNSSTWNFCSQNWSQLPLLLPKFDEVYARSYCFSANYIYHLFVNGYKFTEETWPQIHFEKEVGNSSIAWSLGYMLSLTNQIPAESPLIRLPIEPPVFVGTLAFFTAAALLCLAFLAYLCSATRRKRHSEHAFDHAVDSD
# Description: as §1, with “The reactions were stopped by adding 30 μL of Malachite Reagent A and 100 μL of water to each well. The color was developed by adding 30 μL of Malachite Reagent B to each well followed by gently tapping on the edge and incubation for 30 minutes.” left out
# as §2
SMILES,phosphate released from nucleotide by TNAP (TNAP),phosphate released from nucleotide by CD39L3 (CD39L3),specific activity of ST6Gal 1 against acceptor (ST6Gal 1),also measured
"CC(=O)N[C@H]1[C@H]([C@H](O)[C@H](O)CO)O[C@](OP(=O)(O)OC[C@H]2O[C@@H](n3ccc(N)nc3=O)[C@H](O)[C@@H]2O)(C(=O)O)C[C@@H]1O [CMP-NeuAc, CMP-N-Acetylneuraminic acid]",–,–,–,"apparent Vmax (ST6Gal 1; donor varied, lactosamine fixed at 1 mM): 710 ± 16 pmol/min/µg; Km (ST6Gal 1; donor varied, lactosamine fixed at 1 mM, read-out: apparent Km): 530 ± 40 µM"
Nc1ccn([C@@H]2O[C@H](COP(=O)(O)O)[C@@H](O)[C@H]2O)c(=O)n1 [CMP],–,–,–,dephosphorylation of nucleotide by CD73 (CD73): completely
Nc1nc2c(ncn2[C@@H]2O[C@H](COP(=O)(O)OP(=O)(O)O)[C@@H](O)[C@H]2O)c(=O)[nH]1 [GDP],about two,one,–,–

# Second part, led by results:
phosphate released from nucleotide by TNAP (TNAP),phosphate released from nucleotide by CD39L3 (CD39L3),specific activity of ST6Gal 1 against acceptor (ST6Gal 1),SMILES,also measured
about two,one,–,O=c1ccn([C@@H]2O[C@H](COP(=O)(O)OP(=O)(O)O)[C@@H](O)[C@H]2O)c(=O)[nH]1 [UDP],–
–,–,458 pmol/min/µg,N[C@H]1C(O)O[C@H](CO)[C@@H](O[C@@H]2O[C@H](CO)[C@H](O)[C@H](O)[C@H]2O)[C@@H]1O (stereo partly drawn) [lactosamine],–
–,–,41 pmol/min/µg,OC[C@H]1O[C@@H](O[C@H]2[C@H](O)[C@@H](O)C(O)O[C@@H]2CO)[C@H](O)[C@@H](O)[C@H]1O (stereo partly drawn) [lactose],–
